The record followed here is patent US11007269B2, “P53 degradation inducing molecule and pharmaceutical composition” (Tokyo University of Science Foundation, priority 2016, dated 2021).

Structures are written as SMILES.

This assay has as its target T1, MDM2 protein (Homo sapiens, UniProt Q00987).
T1 construct: endogenous in cells; host or cells: HCT116
Nature of the assay: Western blot of endogenous MDM2 protein degradation (knockdown) in HCT116 cells. In kind it is cell-based. Particulars: 48 hours after addition, vs DMSO control. As for the experimental part: In Example 2, degradation (knockdown) of an endogenous wild-type p53 protein and MDM2 protein in HCT116 cells (human large intestinal cancer cells) to which TIBC-CANDDY_MLN had been added was evaluated by Western blot analysis.
HCT116 cells were seeded in a 24-well plate at a cell density of 8×10^4 cells/well, and then cultured under conditions of 37° C. and 5 vol % CO2 for 16 hours.
After 16 hours from cell seeding, TIBC-CANDDY_MLN or TIBC was added to HCT116 cells as follows. As a medium, a serum-free medium (37° C.) in which 1 mass % L-glutamine solution (Sigma-Aldrich) was added to D-MEM (high D-glucose, phenol red, sodium pyruvate (Wako Pure Chemical Industries, Ltd.)) was used. It is noted that the L-glutamine solution was added immediately before use. […]
After electrophoresis, proteins were transferred to a PVDF membrane (Immobion™-P, Millipore) under conditions of 100 V and 2 hours using a tank-type blotting device and a transfer buffer (25 mM Tris-HCl, 195 mM glycine, 0.01% SDS, 15% methanol). […] Subsequently, the membrane was treated with a chemiluminescence reagent Immobilon™ Western (Millipore), and then chemiluminescence was detected using a lumino image analyzer LAS-3000 (FUJIFILM Corporation).
A general note: In western blotting, separated proteins are transferred to a membrane and probed.

T1 sequence (Q00987 whole entry): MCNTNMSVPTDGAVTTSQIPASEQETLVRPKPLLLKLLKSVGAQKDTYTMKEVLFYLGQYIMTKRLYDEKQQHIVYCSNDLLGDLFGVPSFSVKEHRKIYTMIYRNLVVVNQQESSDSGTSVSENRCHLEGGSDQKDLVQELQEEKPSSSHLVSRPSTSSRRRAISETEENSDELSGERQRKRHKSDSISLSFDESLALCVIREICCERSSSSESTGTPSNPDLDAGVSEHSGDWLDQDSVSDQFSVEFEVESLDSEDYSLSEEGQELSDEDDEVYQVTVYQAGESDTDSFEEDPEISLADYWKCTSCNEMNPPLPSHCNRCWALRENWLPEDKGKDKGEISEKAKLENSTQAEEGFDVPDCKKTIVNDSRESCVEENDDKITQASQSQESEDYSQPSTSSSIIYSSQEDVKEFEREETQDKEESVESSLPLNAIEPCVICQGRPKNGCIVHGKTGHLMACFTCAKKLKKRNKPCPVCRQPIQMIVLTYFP

For the compound `CC(C)C[C@H](NC(=O)CNC(=O)c1cc(Cl)ccc1Cl)C(=O)NCCCCCCC(=O)Nc1ccc(C(=O)/C=C/c2ccc(I)cc2)cc1` [TIBC-CANDDY_MLN], the “amount of the endogenous MDM2 protein (Western blot)” value was “reduced”.
